# System: Pseudomonas aeruginosa
# Assay: Antimicrobial activity against Pseudomonas aeruginosa 1957-00
# Assay type: functional
row,Structure (SMILES),MIC90
1,C[C@@H](O)[C@H]1C(=O)N2C(C(=O)O)=C(S[C@@H]3CN[C@H](C(=O)N(C)C)C3)[C@H](C)[C@H]12 [MEROPENEM],0.125 µg/mL

# System: Pseudomonas aeruginosa
# Assay: Antimicrobial activity against Pseudomonas aeruginosa 1768-00
# Assay type: functional
row,Structure (SMILES),MIC90
1,C[C@@H](O)[C@H]1C(=O)N2C(C(=O)O)=C(S[C@@H]3CN[C@H](C(=O)N(C)C)C3)[C@H](C)[C@H]12 [MEROPENEM],0.5 µg/mL

# System: Pseudomonas aeruginosa
# Assay: Antimicrobial activity against Pseudomonas aeruginosa 1562-05
# Assay type: functional
row,Structure (SMILES),MIC90
1,C[C@@H](O)[C@H]1C(=O)N2C(C(=O)O)=C(S[C@@H]3CN[C@H](C(=O)N(C)C)C3)[C@H](C)[C@H]12 [MEROPENEM],4 µg/mL

# System: Pseudomonas aeruginosa
# Assay: Antimicrobial activity against Pseudomonas aeruginosa 1753-00
# Assay type: functional
row,Structure (SMILES),MIC90
1,C[C@@H](O)[C@H]1C(=O)N2C(C(=O)O)=C(S[C@@H]3CN[C@H](C(=O)N(C)C)C3)[C@H](C)[C@H]12 [MEROPENEM],0.125 µg/mL

# System: Pseudomonas aeruginosa
# Assay: Antimicrobial activity against Pseudomonas aeruginosa PA-1757
# Assay type: functional
row,Structure (SMILES),MIC90
1,C[C@@H](O)[C@H]1C(=O)N2C(C(=O)O)=C(S[C@@H]3CN[C@H](C(=O)N(C)C)C3)[C@H](C)[C@H]12 [MEROPENEM],4 µg/mL

# System: Pseudomonas aeruginosa
# Assay: Antimicrobial activity against Pseudomonas aeruginosa 1568-05
# Assay type: functional
row,Structure (SMILES),MIC90
1,C[C@@H](O)[C@H]1C(=O)N2C(C(=O)O)=C(S[C@@H]3CN[C@H](C(=O)N(C)C)C3)[C@H](C)[C@H]12 [MEROPENEM],0.5 µg/mL

# System: Pseudomonas aeruginosa
# Assay: Antimicrobial activity against Pseudomonas aeruginosa 1954-00
# Assay type: functional
row,Structure (SMILES),MIC90
1,C[C@@H](O)[C@H]1C(=O)N2C(C(=O)O)=C(S[C@@H]3CN[C@H](C(=O)N(C)C)C3)[C@H](C)[C@H]12 [MEROPENEM],0.25 µg/mL

# System: Pseudomonas aeruginosa
# Assay: Antimicrobial activity against Pseudomonas aeruginosa 1565-05
# Assay type: functional
row,Structure (SMILES),MIC90
1,C[C@@H](O)[C@H]1C(=O)N2C(C(=O)O)=C(S[C@@H]3CN[C@H](C(=O)N(C)C)C3)[C@H](C)[C@H]12 [MEROPENEM],0.5 µg/mL

# System: Pseudomonas aeruginosa
# Assay: Antimicrobial activity against Pseudomonas aeruginosa 1612-09
# Assay type: functional
row,Structure (SMILES),MIC90
1,C[C@@H](O)[C@H]1C(=O)N2C(C(=O)O)=C(S[C@@H]3CN[C@H](C(=O)N(C)C)C3)[C@H](C)[C@H]12 [MEROPENEM],16 µg/mL

# System: Pseudomonas aeruginosa
# Assay: Antimicrobial activity against Pseudomonas aeruginosa 1764-00
# Assay type: functional
row,Structure (SMILES),MIC90
1,C[C@@H](O)[C@H]1C(=O)N2C(C(=O)O)=C(S[C@@H]3CN[C@H](C(=O)N(C)C)C3)[C@H](C)[C@H]12 [MEROPENEM],2 µg/mL

# System: Pseudomonas aeruginosa
# Assay: Antimicrobial activity against Pseudomonas aeruginosa 1512-08
# Assay type: functional
row,Structure (SMILES),MIC90
1,C[C@@H](O)[C@H]1C(=O)N2C(C(=O)O)=C(S[C@@H]3CN[C@H](C(=O)N(C)C)C3)[C@H](C)[C@H]12 [MEROPENEM],> 64 µg/mL

# System: Pseudomonas aeruginosa
# Assay: Antimicrobial activity against Pseudomonas aeruginosa 1956-00
# Assay type: functional
row,Structure (SMILES),MIC90
1,C[C@@H](O)[C@H]1C(=O)N2C(C(=O)O)=C(S[C@@H]3CN[C@H](C(=O)N(C)C)C3)[C@H](C)[C@H]12 [MEROPENEM],0.5 µg/mL

# System: Pseudomonas aeruginosa
# Assay: Antimicrobial activity against Pseudomonas aeruginosa 1613-09
# Assay type: functional
row,Structure (SMILES),MIC90
1,C[C@@H](O)[C@H]1C(=O)N2C(C(=O)O)=C(S[C@@H]3CN[C@H](C(=O)N(C)C)C3)[C@H](C)[C@H]12 [MEROPENEM],0.25 µg/mL

# System: Pseudomonas aeruginosa
# Assay: Antimicrobial activity against Pseudomonas aeruginosa 1566-05
# Assay type: functional
row,Structure (SMILES),MIC90
1,C[C@@H](O)[C@H]1C(=O)N2C(C(=O)O)=C(S[C@@H]3CN[C@H](C(=O)N(C)C)C3)[C@H](C)[C@H]12 [MEROPENEM],0.5 µg/mL

# System: Pseudomonas aeruginosa
# Assay: Antimicrobial activity against Pseudomonas aeruginosa 1523-08
# Assay type: functional
row,Structure (SMILES),MIC90
1,C[C@@H](O)[C@H]1C(=O)N2C(C(=O)O)=C(S[C@@H]3CN[C@H](C(=O)N(C)C)C3)[C@H](C)[C@H]12 [MEROPENEM],64 µg/mL

# System: Pseudomonas aeruginosa
# Assay: Antimicrobial activity against Pseudomonas aeruginosa 1563-00
# Assay type: functional
row,Structure (SMILES),MIC90
1,C[C@@H](O)[C@H]1C(=O)N2C(C(=O)O)=C(S[C@@H]3CN[C@H](C(=O)N(C)C)C3)[C@H](C)[C@H]12 [MEROPENEM],2 µg/mL

# System: Pseudomonas aeruginosa
# Assay: Antimicrobial activity against Pseudomonas aeruginosa 1510-08
# Assay type: functional
row,Structure (SMILES),MIC90
1,C[C@@H](O)[C@H]1C(=O)N2C(C(=O)O)=C(S[C@@H]3CN[C@H](C(=O)N(C)C)C3)[C@H](C)[C@H]12 [MEROPENEM],> 64 µg/mL

# System: Pseudomonas aeruginosa
# Assay: Antimicrobial activity against Pseudomonas aeruginosa 1570-05
# Assay type: functional
row,Structure (SMILES),MIC90
1,C[C@@H](O)[C@H]1C(=O)N2C(C(=O)O)=C(S[C@@H]3CN[C@H](C(=O)N(C)C)C3)[C@H](C)[C@H]12 [MEROPENEM],0.25 µg/mL

# System: Pseudomonas aeruginosa
# Assay: Antimicrobial activity against Pseudomonas aeruginosa 1615-09
# Assay type: functional
row,Structure (SMILES),MIC90
1,C[C@@H](O)[C@H]1C(=O)N2C(C(=O)O)=C(S[C@@H]3CN[C@H](C(=O)N(C)C)C3)[C@H](C)[C@H]12 [MEROPENEM],2 µg/mL

# System: Pseudomonas aeruginosa
# Assay: Antimicrobial activity against Pseudomonas aeruginosa 1766-00
# Assay type: functional
row,Structure (SMILES),MIC90
1,C[C@@H](O)[C@H]1C(=O)N2C(C(=O)O)=C(S[C@@H]3CN[C@H](C(=O)N(C)C)C3)[C@H](C)[C@H]12 [MEROPENEM],2 µg/mL

# System: Pseudomonas aeruginosa
# Assay: Antimicrobial activity against Pseudomonas aeruginosa 1514-08
# Assay type: functional
row,Structure (SMILES),MIC90
1,C[C@@H](O)[C@H]1C(=O)N2C(C(=O)O)=C(S[C@@H]3CN[C@H](C(=O)N(C)C)C3)[C@H](C)[C@H]12 [MEROPENEM],> 64 µg/mL

# System: Pseudomonas aeruginosa
# Assay: Antimicrobial activity against Pseudomonas aeruginosa PA-4995
# Assay type: functional
row,Structure (SMILES),MIC90
1,C[C@@H](O)[C@H]1C(=O)N2C(C(=O)O)=C(S[C@@H]3CN[C@H](C(=O)N(C)C)C3)[C@H](C)[C@H]12 [MEROPENEM],16 µg/mL

# System: Pseudomonas aeruginosa
# Assay: Antimicrobial activity against Pseudomonas aeruginosa 1619-08
# Assay type: functional
row,Structure (SMILES),MIC90
1,C[C@@H](O)[C@H]1C(=O)N2C(C(=O)O)=C(S[C@@H]3CN[C@H](C(=O)N(C)C)C3)[C@H](C)[C@H]12 [MEROPENEM],4 µg/mL

# System: Pseudomonas aeruginosa
# Assay: Antimicrobial activity against Pseudomonas aeruginosa 1761-00
# Assay type: functional
row,Structure (SMILES),MIC90
1,C[C@@H](O)[C@H]1C(=O)N2C(C(=O)O)=C(S[C@@H]3CN[C@H](C(=O)N(C)C)C3)[C@H](C)[C@H]12 [MEROPENEM],2 µg/mL

# System: Pseudomonas aeruginosa
# Assay: Antimicrobial activity against Pseudomonas aeruginosa 1561-05
# Assay type: functional
row,Structure (SMILES),MIC90
1,C[C@@H](O)[C@H]1C(=O)N2C(C(=O)O)=C(S[C@@H]3CN[C@H](C(=O)N(C)C)C3)[C@H](C)[C@H]12 [MEROPENEM],2 µg/mL

# System: Pseudomonas aeruginosa
# Assay: Antimicrobial activity against Pseudomonas aeruginosa 1951-00
# Assay type: functional
row,Structure (SMILES),MIC90
1,C[C@@H](O)[C@H]1C(=O)N2C(C(=O)O)=C(S[C@@H]3CN[C@H](C(=O)N(C)C)C3)[C@H](C)[C@H]12 [MEROPENEM],0.06 µg/mL

# — ChEMBL document CHEMBL3217532, “New analyses of MIC90 data to aid antibacterial drug discovery” (2011)
